Source: PubChem BioAssay (NCI)
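Compound exposure: 48 hours, 5 concentrations, 96-well plates. Here, GI50 denotes the concentration required for 50% inhibition of growth. TGI marks complete inhibition of growth.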

Key:
Experiment in all cases: NCI-60 cell line screen, 48 h
SK-OV-3 ovarian = tested on: SK-OV-3 ovarian
UACC-257 melanoma = tested on: UACC-257 melanoma
MALME-3M melanoma = tested on: MALME-3M melanoma
MCF7 breast = tested on: MCF7 breast
CCRF-CEM leukemia = tested on: CCRF-CEM leukemia
SNB-75 CNS = tested on: SNB-75 CNS
HCC-2998 colon = tested on: HCC-2998 colon
MDA-MB-435 = tested on: MDA-MB-435
SF-539 CNS = tested on: SF-539 CNS
NCI-H226 lung = tested on: NCI-H226 lung

Row | Structure (SMILES) | GI50 (SK-OV-3 ovarian) [µM] | TGI (SK-OV-3 ovarian) [µM] | GI50 (UACC-257 melanoma) [µM] | TGI (UACC-257 melanoma) [µM] | GI50 (MALME-3M melanoma) [µM] | TGI (MALME-3M melanoma) [µM] | GI50 (MCF7 breast) [µM] | TGI (MCF7 breast) [µM] | GI50 (CCRF-CEM leukemia) [µM] | TGI (CCRF-CEM leukemia) [µM] | GI50 (SNB-75 CNS) [µM] | TGI (SNB-75 CNS) [µM] | GI50 (HCC-2998 colon) [µM] | TGI (HCC-2998 colon) [µM] | GI50 (MDA-MB-435) [µM] | TGI (MDA-MB-435) [µM] | GI50 (SF-539 CNS) [µM] | TGI (SF-539 CNS) [µM] | TGI (NCI-H226 lung) [µM] | GI50 (NCI-H226 lung) [µM]
1 | COc1ccc(S(=O)(=O)Nc2c(/C=C\c3cc(OC)c(OC)c(OC)c3)ccc(OC)c2O)cc1OC | 1.29 | > 100 | > 78.2 | > 100 | > 100 | > 100 | 0.0405 | > 100 | 0.125 | > 100 | 0.251 | > 100 | 0.306 | 5.57 | 0.03 | 0.302 | 0.0856 | 0.457 | – | –
2 | c1ccc2c(c1)-c1nc3ccccc3cc1C2N1CCOCC1 (configuration not stated) | – | > 100 | – | > 100 | – | > 100 | – | > 100 | – | > 100 | – | > 100 | – | – | – | > 100 | – | – | > 100 | –
3 | C=C(C=O)[C@@H]1CC=C(C=O)CC1 | 20.1 | 50.5 | 15 | 57.9 | 4.39 | > 26 | 2.96 | > 35.5 | – | – | 15.9 | > 100 | 11.2 | 93.5 | 4.21 | 74.3 | 9.88 | 33.5 | 98.7 | 21.1
4 | O=C(Nc1ccc(-n2cc(-c3ccncc3)c(-c3ccc(Cl)c(O)c3)n2)cc1)c1ccc(Cl)c(C(F)(F)F)c1 | 1.81 | 8.81 | 3.27 | 39.9 | – | – | 1.92 | 8.6 | 1.18 | > 100 | 0.362 | 1.9 | 1.69 | 6.96 | 1.45 | 13.1 | 0.65 | 2.99 | > 71 | 16.3
5 | Cc1cccc(C)c1NC(=O)/C(CC(=O)CC(c1ccccc1)c1c(O)c2ccccc2oc1=O)=N/O (configuration not stated) | – | > 100 | – | > 100 | – | – | – | > 100 | – | > 100 | – | > 100 | – | > 100 | – | > 100 | – | > 100 | > 100 | –
6 | CN(CC(=O)O)Cc1c[nH]c2ccccc12 | – | > 100 | – | > 100 | – | > 100 | – | > 100 | – | > 100 | – | > 100 | – | – | – | > 100 | – | > 100 | > 100 | –
7 | COC(=O)c1cccc(COc2ccc([N+](=O)[O-])cc2Cl)c1 | – | > 100 | – | > 100 | – | > 100 | – | > 100 | – | > 100 | – | > 100 | – | – | – | > 100 | – | > 100 | > 100 | –
8 | Nc1nc(N)c(N=Nc2ccc([As](=O)(O)O)c(O)c2)c(N)n1 | – | > 100 | – | > 100 | – | > 100 | – | > 100 | – | > 19.7 | – | > 89.5 | – | – | – | 6.37 | – | > 56.8 | > 100 | –
9 | O=C(O)c1cccc(F)c1C(=O)c1ccc2ccccc2c1 | – | > 100 | – | > 100 | – | > 100 | – | > 100 | – | > 100 | – | > 100 | – | – | – | > 100 | – | > 100 | > 100 | –
10 | COc1cc(/C=C/C(=O)c2ccc(SC)cc2)cc(OC)c1OC | 15.8 | 30.6 | 5.45 | 18.1 | 6.31 | 26.1 | 5.22 | 24.1 | 3.37 | 21.1 | 6.08 | 20.5 | 18 | 33.2 | 12.4 | 25.8 | 11.7 | 27.2 | – | –
11 | CCCCCCCCCCCC(=O)[O][Sn]([CH2]CCC)([CH2]CCC)[CH2]CCC | 0.0617 | 0.193 | 0.0533 | 0.181 | 0.0211 | 0.0772 | 0.037 | 0.161 | – | – | 0.0282 | 0.113 | 0.0669 | 0.187 | 0.0553 | 0.15 | 0.0609 | 0.141 | – | –
12 | CC(NC(=O)C1(N)CCCC1)C(=O)O (configuration not stated) | – | > 100 | – | > 100 | – | > 100 | – | > 100 | – | > 100 | – | > 100 | – | > 100 | – | > 100 | – | – | > 100 | –
13 | CC(=O)O[C@H]1CC[C@@]2(C)[C@@H](CC[C@@H]3[C@@H]2CC(=O)[C@@]2(C)[C@H]3C[C@@H]3CC(C)=CC(=O)[C@@H]32)C1 | – | > 100 | – | > 100 | – | > 100 | – | > 100 | – | > 100 | – | 73.8 | – | > 100 | – | > 100 | – | – | > 100 | –
14 | Cc1cc(=O)[nH]c2c1C(=O)C(=O)C=C2 | > 100 | > 100 | > 100 | > 100 | 29.8 | 96.8 | 29 | 60.6 | – | – | 33.5 | > 100 | > 100 | > 100 | 15.1 | 33.2 | 28.2 | 47.7 | 73 | 28.6
